# Assay results from PubChem BioAssay (NCI).
#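 Abbreviation: GI50, concentration required for 50% inhibition of growth. TGI marks complete inhibition of growth.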
# Assays:
# Assay in all cases: growth of human tumour cells (NCI), 384-well format
# LOX IMVI melanoma = tested on: LOX IMVI melanoma
# K-562 leukemia = tested on: K-562 leukemia
# U251 glioblastoma = tested on: U251 glioblastoma
# A498 renal = tested on: A498 renal
# SNB-19 CNS = tested on: SNB-19 CNS
# A549 NSCLC = tested on: A549 NSCLC
# COLO 205 colon = tested on: COLO 205 colon
# MDA-MB-231 breast = tested on: MDA-MB-231 breast
# MDA-MB-435 melanoma = tested on: MDA-MB-435 melanoma
# NCI-H522 lung = tested on: NCI-H522 lung
# SF-268 CNS = tested on: SF-268 CNS
# MCF7 breast = tested on: MCF7 breast
# DU-145 prostate = tested on: DU-145 prostate
# SN12C renal = tested on: SN12C renal
# UACC-62 melanoma = tested on: UACC-62 melanoma
# NCI-H322M lung = tested on: NCI-H322M lung
# NCI/ADR-RES ovarian = tested on: NCI/ADR-RES ovarian
# HL-60(TB) leukemia = tested on: HL-60(TB) leukemia
# UO-31 renal = tested on: UO-31 renal
# MALME-3M melanoma = tested on: MALME-3M melanoma
# OVCAR-8 ovarian = tested on: OVCAR-8 ovarian
# UACC-257 melanoma = tested on: UACC-257 melanoma
# NCI-H226 lung = tested on: NCI-H226 lung
# CCRF-CEM leukemia = tested on: CCRF-CEM leukemia
# SW-620 colon = tested on: SW-620 colon
# MDA-MB-468 breast = tested on: MDA-MB-468 breast
# EKVX NSCLC = tested on: EKVX NSCLC
# M14 melanoma = tested on: M14 melanoma
# OVCAR-3 ovarian = tested on: OVCAR-3 ovarian
# OVCAR-4 ovarian = tested on: OVCAR-4 ovarian
# HS 578T breast = tested on: HS 578T breast
# HT29 colon = tested on: HT29 colon
# SNB-75 CNS = tested on: SNB-75 CNS
# PC-3 prostate = tested on: PC-3 prostate
# HCC-2998 colon = tested on: HCC-2998 colon
# NCI-H23 lung = tested on: NCI-H23 lung
# SF-539 CNS = tested on: SF-539 CNS
# CAKI-1 renal = tested on: CAKI-1 renal
# NCI-H460 NSCLC = tested on: NCI-H460 NSCLC
# IGROV1 ovarian = tested on: IGROV1 ovarian
# HCT-15 colon = tested on: HCT-15 colon
# RPMI-8226 leukemia = tested on: RPMI-8226 leukemia
# ACHN renal = tested on: ACHN renal
# BT-549 breast = tested on: BT-549 breast
# HOP-92 NSCLC = tested on: HOP-92 NSCLC
# SF-295 CNS = tested on: SF-295 CNS
# MOLT-4 leukemia = tested on: MOLT-4 leukemia
# SK-MEL-28 melanoma = tested on: SK-MEL-28 melanoma
# HOP-62 NSCLC = tested on: HOP-62 NSCLC
# T-47D breast = tested on: T-47D breast
# SK-MEL-5 melanoma = tested on: SK-MEL-5 melanoma
# TK-10 renal = tested on: TK-10 renal
# SR leukemia = tested on: SR leukemia
# SK-OV-3 ovarian = tested on: SK-OV-3 ovarian
# KM12 colon = tested on: KM12 colon
# 786-0 renal = tested on: 786-0 renal
# HCT-116 colon = tested on: HCT-116 colon
structure (smiles),measurement,setting,value
C[C@@H]1COCCN1c1cc(C2([S@@](C)(=N)=O)CC2)nc(-c2ccnc3[nH]ccc23)n1,GI50,LOX IMVI melanoma,3.43 µM
same,TGI,LOX IMVI melanoma,14 µM
same,GI50,K-562 leukemia,3.3 µM
same,TGI,K-562 leukemia,12 µM
same,GI50,U251 glioblastoma,5.72 µM
same,TGI,U251 glioblastoma,> 100 µM
same,GI50,A498 renal,1.12 µM
same,TGI,A498 renal,3.92 µM
same,GI50,SNB-19 CNS,9.29 µM
same,TGI,SNB-19 CNS,> 100 µM
same,GI50,A549 NSCLC,3.93 µM
same,TGI,A549 NSCLC,36.5 µM
same,GI50,COLO 205 colon,9.01 µM
same,TGI,COLO 205 colon,62.6 µM
same,GI50,MDA-MB-231 breast,6.06 µM
same,TGI,MDA-MB-231 breast,> 100 µM
same,GI50,MDA-MB-435 melanoma,7.48 µM
same,TGI,MDA-MB-435 melanoma,> 100 µM
same,GI50,NCI-H522 lung,10.8 µM
same,TGI,NCI-H522 lung,> 100 µM
same,GI50,SF-268 CNS,5.75 µM
same,TGI,SF-268 CNS,95.7 µM
same,GI50,MCF7 breast,1.27 µM
same,TGI,MCF7 breast,> 100 µM
same,GI50,DU-145 prostate,3.82 µM
same,TGI,DU-145 prostate,> 100 µM
same,GI50,SN12C renal,4.3 µM
same,TGI,SN12C renal,50.1 µM
same,GI50,UACC-62 melanoma,4.45 µM
same,TGI,UACC-62 melanoma,64.9 µM
same,GI50,NCI-H322M lung,1.78 µM
same,TGI,NCI-H322M lung,7.77 µM
same,GI50,NCI/ADR-RES ovarian,61.8 µM
same,TGI,NCI/ADR-RES ovarian,> 100 µM
same,GI50,HL-60(TB) leukemia,1.98 µM
same,TGI,HL-60(TB) leukemia,3.68 µM
same,GI50,UO-31 renal,4.47 µM
same,TGI,UO-31 renal,> 100 µM
same,GI50,MALME-3M melanoma,3.72 µM
same,TGI,MALME-3M melanoma,23.6 µM
same,GI50,OVCAR-8 ovarian,7.62 µM
same,TGI,OVCAR-8 ovarian,32.2 µM
same,GI50,UACC-257 melanoma,41.3 µM
same,TGI,UACC-257 melanoma,> 100 µM
same,GI50,NCI-H226 lung,16.1 µM
same,TGI,NCI-H226 lung,77 µM
same,GI50,CCRF-CEM leukemia,0.902 µM
same,TGI,CCRF-CEM leukemia,2.26 µM
same,GI50,SW-620 colon,10.6 µM
same,TGI,SW-620 colon,> 100 µM
same,GI50,MDA-MB-468 breast,5.01 µM
same,TGI,MDA-MB-468 breast,27.3 µM
same,GI50,EKVX NSCLC,9.1 µM
same,TGI,EKVX NSCLC,69.1 µM
same,GI50,M14 melanoma,2.44 µM
same,TGI,M14 melanoma,9.06 µM
same,GI50,OVCAR-3 ovarian,4.62 µM
same,TGI,OVCAR-3 ovarian,> 100 µM
same,GI50,OVCAR-4 ovarian,5.37 µM
same,TGI,OVCAR-4 ovarian,75.1 µM
same,GI50,HS 578T breast,1.22 µM
same,TGI,HS 578T breast,3.37 µM
same,GI50,HT29 colon,4.65 µM
same,TGI,HT29 colon,26.9 µM
same,GI50,SNB-75 CNS,3.9 µM
same,TGI,SNB-75 CNS,51.8 µM
same,GI50,PC-3 prostate,7.65 µM
same,TGI,PC-3 prostate,> 100 µM
same,GI50,HCC-2998 colon,1.1 µM
same,TGI,HCC-2998 colon,5.38 µM
same,GI50,NCI-H23 lung,1.97 µM
same,TGI,NCI-H23 lung,5.21 µM
same,GI50,SF-539 CNS,2.16 µM
same,TGI,SF-539 CNS,6.4 µM
same,GI50,CAKI-1 renal,3.87 µM
same,TGI,CAKI-1 renal,29.6 µM
same,GI50,NCI-H460 NSCLC,1.38 µM
same,TGI,NCI-H460 NSCLC,10.5 µM
same,GI50,IGROV1 ovarian,3.47 µM
same,TGI,IGROV1 ovarian,32.9 µM
same,GI50,HCT-15 colon,4.48 µM
same,TGI,HCT-15 colon,> 100 µM
same,GI50,RPMI-8226 leukemia,1.82 µM
same,TGI,RPMI-8226 leukemia,4.28 µM
same,GI50,ACHN renal,2.03 µM
same,TGI,ACHN renal,17.5 µM
same,GI50,BT-549 breast,1.98 µM
same,TGI,BT-549 breast,7.43 µM
same,GI50,HOP-92 NSCLC,3.02 µM
same,TGI,HOP-92 NSCLC,13.1 µM
same,GI50,SF-295 CNS,2.68 µM
same,TGI,SF-295 CNS,13.7 µM
same,GI50,MOLT-4 leukemia,1.35 µM
same,TGI,MOLT-4 leukemia,2.68 µM
same,GI50,SK-MEL-28 melanoma,23.8 µM
same,TGI,SK-MEL-28 melanoma,> 100 µM
same,GI50,HOP-62 NSCLC,2.15 µM
same,TGI,HOP-62 NSCLC,9.45 µM
same,GI50,T-47D breast,14.7 µM
same,TGI,T-47D breast,> 100 µM
same,GI50,SK-MEL-5 melanoma,7.66 µM
same,TGI,SK-MEL-5 melanoma,25 µM
same,GI50,TK-10 renal,1.83 µM
same,TGI,TK-10 renal,6.26 µM
same,GI50,SR leukemia,0.0145 µM
same,TGI,SR leukemia,0.244 µM
same,GI50,SK-OV-3 ovarian,3.29 µM
same,TGI,SK-OV-3 ovarian,41.8 µM
same,GI50,KM12 colon,1.8 µM
same,TGI,KM12 colon,27.1 µM
same,GI50,786-0 renal,2.32 µM
same,TGI,786-0 renal,12.1 µM
same,GI50,HCT-116 colon,3.27 µM
same,TGI,HCT-116 colon,56.5 µM
